# Test results from US20210290676A1, “IMPROVING THE EFFICACY AND SAFETY OF ADOPTIVE CELLULAR THERAPIES” (University of Southern California, priority 2018, published 2021).
# Legend:
# Format in all cases: cell-based, human
# [1] = tested on: Pgp+ (DiOC2(3)-dye effluxing) T cells; test: DiOC2(3) dye efflux flow cytometry of inhibitor-treated T cells
# Experimental: (§1) The use of P-glycoprotein (Pgp)-mediated efflux of DiOC2(3) to isolate stem like T cells for adoptive cellular therapy has been described in application no. […] In the following examples, DiOC2(3) staining was used to study the effect of different inhibitors on generation of stem like T cells.
# (§2) DAY 0: Blood was obtained from unidentified donor. After RBC lysis, PBMC were collected using Ficoll-Hypaque separation. […] T cells were cultured in three different conditions: • 1. XVIVO 15 medium (Lonza) with IL2 50 IU/ml, CD3 antibody (30 ng/ml) and CD28 antibody (30 ng/ml). • 2. XVIVO 15 medium (Lonza) with CD3 antibody (30 ng/ml) and CD28 antibody (30 ng/ml). • 3. XVIVO 15 medium (Lonza) with IL2 50 IU/ml DAY 1: Cells were plated in a 6-well plate at a density of 1 million cells in 2 ml/of media (as described above) and treated with different inhibitors
# (§3) The cell growth medium was changed in 6-well plates and fresh drugs were added at same concentration for one more week.
# (§4) […] (DAY 11): Culture medium was changed and fresh drugs were added in 6-well plates.
# (§5) Subsequently, cells were washed with RPMI medium and dye was effluxed at 37° C. for 90 min. Cells were washed with […], stained with CD62L-APC (5 μl/100 μl/sample) at 4° C. for 1 h, washed twice with PBS+1% FBS and analyzed on flow cytometer to check if these drugs treatment leads to increase in Pgp+/CD62L positive population.
# (§6) Day 0: Blood was obtained from unidentified donor. After RBC lysis, PBMC were collected using Ficoll-Hypaque separation. 200 million T cells were isolated from PBMCs using CD3 microbeads. T cells were cultured overnight in XVIVO 15 medium (Lonza) with IL2 (50 IU/ml), 30 ng/ml of CD3 and CD28 antibodies
# (§7) Day 1: Cells were plated in 24-well plates at a density of 0.3 million cells/ml in each well and treated with different drugs.
# (§8) On day 7, culture medium was replaced with fresh medium with fresh drugs.
# (§9) On day 13, culture medium was replaced with fresh medium and fresh drugs. Half of the cells were transferred to 6-well plates.
# (§10) Day 14: An aliquot of cells with all the treatments listed above (for 13 days) was used to stain the cells with DiOC2(3) (60 ng/ml in RPMI medium) at 4° C. for 40 min, washed with RPMI medium, DiOC2(3) dye was effluxed at 37° C. for 90 min, washed with PBS+1% FBS, stained with CD62L-APC antibody. CD62L is a marker for resting T cells. (5 μl/100 μl/sample) at 4° C. for 1 h, washed twice with PBS+1% FBS and analyzed on flow cytometer to check if these drugs are affecting the dye-effluxing or Pgp+ (i.e., DiOC2(3)-dull) T-cell population.
# [2] = tested on: Pgp+ (DiOC2(3)-dye effluxing cells) and CD62L+ T cells; test: DiOC2(3) dye efflux plus CD62L-APC staining, flow cytometry of inhibitor-treated T cells
# Experimental: as §1, §2, §3, §4, §5, §6, §7, §8, §9, §10
# [3] = tested on: CD8+CD45RA+CCR7+CD62L+ T cells; test: Flow cytometry for CD8, CD45RA, CCR7 and CD62L on inhibitor-treated T cells; conditions: 13 days of treatment
# Experimental: as §2
# (§11) A second aliquot of the cells cultured for 13 days with all the treatments listed above (1-21) was washed with PBS+1% FBS, stained with CD8-PerCP, CD45RA-FITC, CCR7-PE and CD62L-APC (5% Y/100 μl/sample for each of 4 antibodies) at 4° C. for 1 h, washed twice with PBS+100 FBS and analyzed on flow cytometer to check if these drugs are enriching T stem cells showing surface expression of CD8+CD45RA+CCR7+CD62L+.
# as §6, §7, §8, §9
# as §11, with “14” for “13”, “above” for “above (1-21)”, “(5 ul/100 ul/sample” for “(5% Y/100 μl/sample”, “PBS+1%” for “PBS+100”, “enriching for” for “enriching”, “T” for “T stem”
# [4] = tested on: CD45RA+CCR7+CD62L+ T cells; test: Flow cytometry for CD45RA, CCR7 and CD62L on inhibitor-treated T cells (all T cells); conditions: 13 days treatment
# Experimental: as §2, §11, §6, §7, §8, §9
# as §11, with “14” for “13”, “above” for “above (1-21)”, “(5 ul/100 ul/sample” for “(5% Y/100 μl/sample”, “PBS+1%” for “PBS+100”, “enriching for” for “enriching”, “T” for “T stem”
# [5] = CD3-CD28-IL2 culture, inhibitor 10 nM
# [6] = CD3-CD28-IL2 culture, inhibitor 100 nM
# [7] = CD3-CD28-IL2 culture, inhibitor 200 nM
# [8] = CD3-CD28 culture, inhibitor 10 nM
# [9] = CD3-CD28 culture, inhibitor 100 nM
# [10] = CD3-CD28 culture, inhibitor 200 nM
# [11] = CD3-IL2 culture, inhibitor 10 nM
# [12] = CD3-IL2 culture, inhibitor 100 nM
# [13] = CD3-IL2 culture, inhibitor 200 nM
smiles,measurement,setting,value
CCN(c1cc(-c2ccc(CN3CCOCC3)cc2)cc(C(=O)NCc2c(C)cc(C)[nH]c2=O)c1C)C1CCOCC1 [Tazemetostat],% of Pgp+ cells out of live cells,"[1]; CD3-CD28-IL2 culture, inhibitor 10 nM, 6 days of treatment",21.86%
same,% of Pgp+ cells out of live cells,"[1]; CD3-CD28-IL2 culture, inhibitor 10 nM, 13 days of treatment",30.38%
same,% of Pgp+ cells out of live cells,"[1]; CD3-CD28-IL2 culture, inhibitor 100 nM, 6 days of treatment",27.17%
same,% of Pgp+ cells out of live cells,"[1]; CD3-CD28-IL2 culture, inhibitor 100 nM, 13 days of treatment",38.45%
same,% of Pgp+ cells out of live cells,"[1]; CD3-CD28-IL2 culture, inhibitor 200 nM, 6 days of treatment",24.85%
same,% of Pgp+ cells out of live cells,"[1]; CD3-CD28-IL2 culture, inhibitor 200 nM, 13 days of treatment",41.22%
same,% of Pgp+ cells out of live cells,"[1]; CD3-CD28 culture, inhibitor 10 nM, 6 days of treatment",39.28%
same,% of Pgp+ cells out of live cells,"[1]; CD3-CD28 culture, inhibitor 10 nM, 13 days of treatment",12.41%
same,% of Pgp+ cells out of live cells,"[1]; CD3-CD28 culture, inhibitor 100 nM, 6 days of treatment",40.50%
same,% of Pgp+ cells out of live cells,"[1]; CD3-CD28 culture, inhibitor 100 nM, 13 days of treatment",5.19%
same,% of Pgp+ cells out of live cells,"[1]; CD3-CD28 culture, inhibitor 200 nM, 6 days of treatment",43.11%
same,% of Pgp+ cells out of live cells,"[1]; CD3-CD28 culture, inhibitor 200 nM, 13 days of treatment",11.82%
same,% of Pgp+ cells out of live cells,"[1]; CD3-IL2 culture, inhibitor 10 nM, 6 days of treatment",24.77%
same,% of Pgp+ cells out of live cells,"[1]; CD3-IL2 culture, inhibitor 10 nM, 13 days of treatment",28.61%
same,% of Pgp+ cells out of live cells,"[1]; CD3-IL2 culture, inhibitor 100 nM, 6 days of treatment",25.31%
same,% of Pgp+ cells out of live cells,"[1]; CD3-IL2 culture, inhibitor 100 nM, 13 days of treatment",16.74%
same,% of Pgp+ cells out of live cells,"[1]; CD3-IL2 culture, inhibitor 200 nM, 6 days of treatment",25.89%
same,% of Pgp+ cells out of live cells,"[1]; CD3-IL2 culture, inhibitor 200 nM, 13 days of treatment",28.06%
same,percentage of Pgp+ cells,"[1]; culture with CD3 antibody, CD28 antibody and IL2, 6 days of treatment, 10 nM",27.17%
same,% of Pgp+ CD62L+cells out of live cells,"[2]; CD3-CD28-IL2 culture, inhibitor 10 nM, 6 days treatment",8.42%
same,% of Pgp+ CD62L+cells out of live cells,"[2]; CD3-CD28-IL2 culture, inhibitor 10 nM, 13 days treatment",8.03%
same,% of Pgp+ CD62L+cells out of live cells,"[2]; CD3-CD28-IL2 culture, inhibitor 100 nM, 6 days treatment",13.16%
same,% of Pgp+ CD62L+cells out of live cells,"[2]; CD3-CD28-IL2 culture, inhibitor 100 nM, 13 days treatment",12.57%
same,% of Pgp+ CD62L+cells out of live cells,"[2]; CD3-CD28-IL2 culture, inhibitor 200 nM, 6 days treatment",11.30%
same,% of Pgp+ CD62L+cells out of live cells,"[2]; CD3-CD28-IL2 culture, inhibitor 200 nM, 13 days treatment",14.25%
same,% of Pgp+ CD62L+cells out of live cells,"[2]; CD3-CD28 culture, inhibitor 10 nM, 6 days treatment",19.36%
same,% of Pgp+ CD62L+cells out of live cells,"[2]; CD3-CD28 culture, inhibitor 10 nM, 13 days treatment",2.95%
same,% of Pgp+ CD62L+cells out of live cells,"[2]; CD3-CD28 culture, inhibitor 100 nM, 6 days treatment",18.38%
same,% of Pgp+ CD62L+cells out of live cells,"[2]; CD3-CD28 culture, inhibitor 100 nM, 13 days treatment",1.18%
same,% of Pgp+ CD62L+cells out of live cells,"[2]; CD3-CD28 culture, inhibitor 200 nM, 6 days treatment",20.94%
same,% of Pgp+ CD62L+cells out of live cells,"[2]; CD3-CD28 culture, inhibitor 200 nM, 13 days treatment",2.66%
same,% of Pgp+ CD62L+cells out of live cells,"[2]; CD3-IL2 culture, inhibitor 10 nM, 6 days treatment",8.76%
same,% of Pgp+ CD62L+cells out of live cells,"[2]; CD3-IL2 culture, inhibitor 10 nM, 13 days treatment",9.87%
same,% of Pgp+ CD62L+cells out of live cells,"[2]; CD3-IL2 culture, inhibitor 100 nM, 6 days treatment",10.11%
same,% of Pgp+ CD62L+cells out of live cells,"[2]; CD3-IL2 culture, inhibitor 100 nM, 13 days treatment",4.31%
same,% of Pgp+ CD62L+cells out of live cells,"[2]; CD3-IL2 culture, inhibitor 200 nM, 6 days treatment",11.97%
same,% of Pgp+ CD62L+cells out of live cells,"[2]; CD3-IL2 culture, inhibitor 200 nM, 13 days treatment",9.08%
same,percentage of Pgp+CD62L+ cells,"[2]; culture with CD3 antibody, CD28 antibody and IL2, 6 days of treatment, 100 nM",13.168%
same,% of CD62L+CCR7+ double positive cells out of CD45RA+ cells in CD8+ T cell population,[3]; [5],62.73%
same,% of CD62L+CCR7+ double positive cells out of CD45RA+ cells in CD8+ T cell population,[3]; [6],83.53%
same,% of CD62L+CCR7+ double positive cells out of CD45RA+ cells in CD8+ T cell population,[3]; [7],80.78%
same,% of CD62L+CCR7+ double positive cells out of CD45RA+ cells in CD8+ T cell population,[3]; [8],87.00%
same,% of CD62L+CCR7+ double positive cells out of CD45RA+ cells in CD8+ T cell population,[3]; [9],88.26%
same,% of CD62L+CCR7+ double positive cells out of CD45RA+ cells in CD8+ T cell population,[3]; [10],88.37%
same,% of CD62L+CCR7+ double positive cells out of CD45RA+ cells in CD8+ T cell population,[3]; [11],82.23%
same,% of CD62L+CCR7+ double positive cells out of CD45RA+ cells in CD8+ T cell population,[3]; [12],79.86%
same,% of CD62L+CCR7+ double positive cells out of CD45RA+ cells in CD8+ T cell population,[3]; [13],77.35%
same,% of CD62L+CCR7+ double positive cells out of CD45RA+ cells in live T cell population,[4]; [5],50.85%
same,% of CD62L+CCR7+ double positive cells out of CD45RA+ cells in live T cell population,[4]; [6],67.51%
same,% of CD62L+CCR7+ double positive cells out of CD45RA+ cells in live T cell population,[4]; [7],66.36%
same,% of CD62L+CCR7+ double positive cells out of CD45RA+ cells in live T cell population,[4]; [8],77.81%
same,% of CD62L+CCR7+ double positive cells out of CD45RA+ cells in live T cell population,[4]; [9],79.62%
same,% of CD62L+CCR7+ double positive cells out of CD45RA+ cells in live T cell population,[4]; [10],78.45%
same,% of CD62L+CCR7+ double positive cells out of CD45RA+ cells in live T cell population,[4]; [11],67.30%
same,% of CD62L+CCR7+ double positive cells out of CD45RA+ cells in live T cell population,[4]; [12],63.89%
same,% of CD62L+CCR7+ double positive cells out of CD45RA+ cells in live T cell population,[4]; [13],59.08%
